According to patent publication US20260159536A1, “AKR1C3-ACTIVATED DNA ALKYLATING AGENT, AND MEDICAL APPLICATION THEREOF” (ASCENTAWITS PHARMACEUTICALS, LTD., priority 2021, published 2026):

Legend:
[1] = system: SNU354; assay: Cytotoxicity on hepatocellular carcinoma cell line SNU354; format: cell-based
Procedure: (§1) If not otherwise specified, IC50 values were measured by the following experimental methods:
(§2) a) Cells were plated for 24 hours, and then the compounds acted singly. 99 μL of growth medium was supplemented per well, and then 1 μL of 200× compound was added, gently shaken to ensure uniform mixing, and then placed in a 37° C., 5% CO2 incubator.
(§3) b) The cell plate was placed in the incubator for 72 hours.
(§4) b) 100 μL of CTG reagent (CelltiterGlo kit) was added to each well, the plate was placed in a rapid oscillator and shaken for 2 minutes, and then placed at room temperature for 30 minutes away from light.
(§5) The IC50 was calculated using GraphPad Prism 8 software and the IC50 (half inhibitory concentration) of the compounds was obtained using the following non-linear fitting formula: […]
(§6) Using the same experimental methods as described above, Compounds A, B and C were further tested for cytotoxicity against different hepatocellular carcinoma (HCC) cell lines SNU354, SNU886, MHCC97H and huH-1, and the results were shown in Table 2 below: […]

[2] = system: SNU886; assay: Cytotoxicity on hepatocellular carcinoma cell line SNU886; format: cell-based
Procedure: as §1, §2, §3, §4, §5, §6

[3] = system: huH-1; assay: Cytotoxicity on hepatocellular carcinoma cell line huH-1; format: cell-based
Procedure: as §1, §2, §3, §4, §5, §6

[4] = system: HuPrime model LI6280 human liver cancer; assay: In vivo pharmacodynamics, liver cancer LI6280 PDX model; parameters: species or system BALB/c nude mice; details: for Tumor volume: 4.5 mg/kg i.v.
Procedure: Experiment Instruction: BALB/c nude mice were subcutaneously inoculated with HuPrime® model LI6280 tumour blocks to establish a subcutaneous transplantation tumour model of human liver cancer. […] The efficacy was evaluated according to the relative tumor inhibition rate TGI (%), and the safety was evaluated according to the change in body weight and the death of the animals.

[5] = system: human lung cancer NCI-H460 cells; assay: In vivo pharmacodynamics, NCI-H460 subcutaneous xenograft model; parameters: species or system BALB/c nude mice; details: Day 31
Procedure: BALB/c nude mice were subcutaneously inoculated with human lung cancer NCI-H460 cells to establish a subcutaneous transplantation tumor model of human lung cancer.
The pharmacodynamic analysis of each group in the NCI-H460 CDX model was performed on Day 31 after tumor cell inoculation, and the results were shown in Table 10.

[6] = system: HuPrime model PA1222 human pancreatic cancer; assay: In vivo pharmacodynamics, pancreatic cancer PA1222 PDX model; details: for Tumor volume: 10 mg/kg i.v.
Procedure: The test was divided into groups of test drug Gemcitabine 120 mg/kg group, test drug Compound A 10 mg/kg and 7.5% anhydrous ethanol+7.5% polyoxyethylene (35) castor oil+85% glucose injection DSW (pH 7.4) vehicle control group, a total of 3 groups, with 5 mice per group. […] Test drug Gemcitabine (Gemcitabine) 120 mg/kg group was administered intraperitoneally, once a week for three consecutive weeks.

[7] = system: human liver cancer HepG2 cells; assay: In vivo pharmacodynamics, liver cancer HepG2 CDX model; parameters: species or system BALB/c nude mice
Procedure: Experiment Instruction: BALB/c nude mice were subcutaneously inoculated with human liver cancer HepG2 cells to establish a subcutaneous transplantation tumor model of human liver cancer. […] The efficacy was evaluated according to the relative tumor inhibition rate TGI (%), and the safety was evaluated according to the change in body weight and the death of the animals.

[8] = 1.25 mg/kg, QDx5, 2 days off, 2 weeks off, QDx5, i.p., Day 53

SMILES: O=[N+]([O-])c1ccc(C(OP(=O)(N2CC2)N2CC2)C(F)(F)F)cc1Oc1ccc(-c2ccc(F)cc2)c(F)c1 (racemic) [Compound A]
- IC50 ([1]; Homo sapiens, SNU-354): 962 nM
- ratio A/B ([1]; IC50 ratio): 1.28
- ratio A/C ([1]; IC50 ratio): 0.63
- ratio A/B ([2]; IC50 ratio): 1.66
- ratio A/C ([2]; IC50 ratio): 0.75
- IC50 ([2]; SNU-886): 628 nM
- IC50 ([3]; Homo sapiens, HuH-1): 306 nM
- ratio A/B ([3]; IC50 ratio, huH-1): 1.19
- ratio A/C ([3]; IC50 ratio, huH-1): 1.14
- Relative tumor volume (x ± S) ([4]; 4.5 mg/kg i.v. QWx3, Day 17): 20.79 ± 1.15
- T/C (%) ([4]; 4.5 mg/kg i.v. QWx3, Day 17): 101.41%
- TGI (%) ([4]; 4.5 mg/kg i.v. QWx3, Day 17): −1.41%
- Tumor volume (x ± S) ([4]; 4.5 mg/kg i.v. QWx3, Day 17, in mm³ (unit assumed)): 2201.20 ± 287.44
- Tumor volume ([4]; Day 0): 103.98 mm^3
- Tumor volume ([4]; Day 3): 150.33 mm^3
- Tumor volume ([4]; Day 7): 318.74 mm^3
- Tumor volume ([4]; Day 10): 683.99 mm^3
- Tumor volume ([4]; Day 14): 1404.42 mm^3
- Tumor volume ([4]; Day 17): 2201.20 mm^3
- Tumor volume ([4]; Day 21): 2739.12 mm^3
- Tumor volume ([4]; Day 24): 3311.77 mm^3
- Tumor volume ([4]; Day 28): 3362.07 mm^3
- T/C (%) ([5]; 10 mg/kg, QWx3, i.v.): 8.94%
- Tumor volume (x ± S) ([5]; 10 mg/kg, QWx3, i.v., in mm³ (unit assumed)): 164.13 ± 34.01
- Tumor volume ([5]; 15 mg/kg i.v.): 125.90 mm^3
- Relative tumor volume (x ± S) ([5]; 15 mg/kg, QWx3, i.v.): 0.92 ± 0.22
- TGI (%) ([5]; 15 mg/kg, QWx3, i.v.): 93.06%
- toxic side effects (body weight change) ([6]; 10 mg/kg i.v. QWx3): without toxic side effects
- Tumor volume ([6]; Day 0): 111.50 mm^3
- Tumor volume ([6]; Day 3): 117.62 mm^3
- Tumor volume ([6]; Day 7): 113.91 mm^3
- Tumor volume ([6]; Day 10): 107.17 mm^3
- Tumor volume ([6]; Day 14): 66.08 mm^3
- Tumor volume ([6]; Day 17): 42.94 mm^3
- Tumor volume ([6]; Day 21): 23.22 mm^3
- Tumor volume ([6]; Day 24): 21.20 mm^3
- Tumor volume ([6]; Day 28): 12.51 mm^3
- Relative tumor volume (x ± S) ([6]; 10 mg/kg, QWx3, i.v., Day 28): 0.10 ± 0.04
- T/C (%) ([6]; 10 mg/kg, QWx3, i.v., Day 28): 2.86%
- TGI (%) ([6]; 10 mg/kg, QWx3, i.v., Day 28): 97.14%
- Tumor volume (x ± S) ([6]; 10 mg/kg, QWx3, i.v., Day 28): 12.51 ± 5.25
- Tumor volume ([7]; 1.25 mg/kg i.p., Day 19): 189.54 mm^3
- Tumor volume ([7]; 1.25 mg/kg i.p., Day 22): 315.41 mm^3
- Tumor volume ([7]; 1.25 mg/kg i.p., Day 24): 351.74 mm^3
- Tumor volume ([7]; 1.25 mg/kg i.p., Day 27): 383.10 mm^3
- Tumor volume ([7]; 1.25 mg/kg i.p., Day 31): 366.64 mm^3
- Tumor volume ([7]; 1.25 mg/kg i.p., Day 36): 416.27 mm^3
- Tumor volume ([7]; 1.25 mg/kg i.p., Day 39): 586.80 mm^3
- Tumor volume ([7]; 1.25 mg/kg i.p., Day 42): 782.39 mm^3
- Tumor volume ([7]; 1.25 mg/kg i.p., Day 46): 886.97 mm^3
- Tumor volume ([7]; 1.25 mg/kg i.p., Day 49): 975.41 mm^3
- Tumor volume ([7]; 1.25 mg/kg i.p., Day 53): 1066.23 mm^3
- Relative tumor volume (x ± S) [7, 8]: 5.57 ± 1.26
- T/C (%) [7, 8]: 47.03%
- TGI (%) [7, 8]: 52.97%
- Tumor volume (x ± S) ([7]; 1.25 mg/kg, QDx5, 2 days off, 2 weeks off, QDx5, i.p., Day 53, in mm³ (unit assumed)): 1066.23 ± 252.18
- Tumor volume ([7]; 2.5 mg/kg i.p., Day 19): 189.31 mm^3
- Tumor volume ([7]; 2.5 mg/kg i.p., Day 22): 292.03 mm^3
- Tumor volume ([7]; 2.5 mg/kg i.p., Day 24): 360.14 mm^3
- Tumor volume ([7]; 2.5 mg/kg i.p., Day 27): 373.23 mm^3
